Laboratory results published in PMC12396409, “Screening and hit evaluation of a microbial metabolite library against the pathogenic Plasmodium falciparum and Toxoplasma gondii parasites” (International Journal for Parasitology: Drugs and Drug …, 2025).

Key:
[1] = tested on: P. falciparum 3D7 parasites; assay: P. falciparum growth inhibition assay, 1-cycle (72 h treatment), SYBR DNA staining (library screen at 2 μg/mL and dose-response); format: cell-based, Plasmodium falciparum; settings: for 1) Growth (%) at 72 h / Mean: P. falciparum, 2 μg/mL, 72 h; for Mean: mean of both replicates, growth (% of control); for activity at 2 µg/mL: Plasmodium falciparum, 3D7; P. falciparum, 2 μg/mL, 72 h; read-out: 1) Growth (%) at 72 h
[2] = tested on: P. falciparum 3D7 parasites; assay: P. falciparum growth inhibition assay, 2-cycle (120 h treatment), delayed-death screen and dose-response; format: cell-based, Plasmodium falciparum; settings: for 2) Growth (%) at 120 h / 3) Fold change (72 h/120 h): P. falciparum, 2 μg/mL; for 3) Fold change (72 h/120 h): growth at 72 h / growth at 120 h; for activity at 2 µg/mL: Plasmodium falciparum, 3D7; P. falciparum, 2 μg/mL, 120 h; read-out: 2) Growth (%) at 120 h

Row | Compound | 1) Growth (%) at 72 h [1] [%] | 2) Growth (%) at 120 h [2] [%] | 3) Fold change (72 h/120 h) [2] | Mean [1] | activity at 2 µg/mL [1] [%] | activity at 2 µg/mL [2] [%]
1 | CCCCCC(=O)O[C@H]1[C@H](C)O[C@@H](O[C@H]2[C@H](N(C)C)[C@@H](O)[C@H](O[C@H]3[C@@H](CC=O)C[C@@H](C)[C@@H](O)/C=C/C=C/C[C@@H](C)OC(=O)C[C@@H](O)[C@@H]3OC)O[C@@H]2C)C[C@@]1(C)O [Leucomycin A13] | 33.20 | 9.02 | 3.7 |  |  | 
2 | CCCC(=O)O[C@H]1[C@H](C)O[C@@H](O[C@H]2[C@H](N(C)C)[C@@H](O)[C@H](O[C@H]3[C@@H](CC=O)C[C@@H](C)[C@@H](O)/C=C/C=C/C[C@@H](C)OC(=O)C[C@@H](O)[C@@H]3OC)O[C@@H]2C)C[C@@]1(C)O [Leucomycin A5] | 66.05 | 12.18 | 5.4 |  |  | 
3 | CC1=C[C@H]2C(=O)O[C@H]3C[C@@H](C/C=C(\C)C[C@@H](C)/C=C/C=C4\CO[C@H]([C@@H]1O)[C@@]42O)O[C@@]1(CC[C@H](C)[C@@H](C)O1)C3 [Milbemycin A3] | 24.47 | 17.63 | 1.4 | 24.47 |  | 
4 | CN(C)[C@@H]1C(O)=C(C(N)=O)C(=O)[C@@]2(O)C(O)=C3C(=O)c4c(O)cccc4[C@@](C)(O)[C@H]3[C@H](O)[C@@H]12 [Oxytetracycline, reference compound] |  |  | 3.1 |  | 47.4 | 15.2
5 | CN=C1NC(=O)[C@H]([C@H](C)c2c[nH]c3ccccc23)O1 [Indolmycin] | 44.88 | 17.39 | 2.6 |  |  | 
6 | COC(=O)C1=CO[C@@H](C)[C@@H]2CN3CCc4c([nH]c5cc(OC)c(OC)cc45)[C@@H]3C[C@H]12 [Isoreserpiline] | 24.60 | 4.30 | 5.7 |  |  | 
7 | CC(=O)O[C@H]1C[C@@]2(C)[C@@H](CC[C@H]3[C@@]4(C)C=CC(=O)[C@@H](C)[C@@H]4[C@H](OC(C)=O)C(=O)[C@@]32C)/C1=C(\CCC=C(C)C)C(=O)O [Helvolic acid] |  |  | 7.0 |  | 56.7 | 8.14
8 | Milbemycin oxime [reference compound] | 23.75 | 3.08 | 7.7 |  |  | 
9 | CC[C@H]1/C=C/C=C/C[C@@H](C)[C@H](O)[C@@](C)(O)C(=O)[C@@H](C)[C@H](O)[C@@H](C)C(=O)[C@@H](C)[C@H](O)[C@@H](C)/C=C/C(=O)O[C@H]2C[C@@]3(CC[C@H](C)[C@H](C[C@@H](C)O)O3)O[C@@H](CC1)[C@H]2C [Oligomycin D] | 21.67 | 14.87 | 1.5 | 21.67 |  | 
10 | Methylcanidine | 21.12 | 11.61 | 1.8 | 21.12 |  | 
11 | CC[C@H]1O[C@]2(CC[C@@H]1C)C[C@@H]1C[C@@H](C/C=C(\C)C[C@@H](C)/C=C/C=C3\CO[C@@H]4C(=NO)C(C)=C[C@@H](C(=O)O1)[C@]34O)O2 [Milbemycin A4 oxime] | 22.48 | 12.31 | 1.8 | 22.48 |  | 
12 | Cc1cc(=O)n2c3c(c4c(cc13)c(CO)cc(=O)n4C)OC2 [Nybomycin] | 31.94 | 16.54 | 1.9 | 31.94 |  | 
13 | CCC[C@@H]1C[C@@H](C(=O)N[C@@H]([C@H]2O[C@H](SC)[C@H](O)[C@@H](O)[C@H]2O)[C@@H](C)O)N(C)C1 [Lincomycin, reference compound] |  |  | 3.8 |  | 54.4 | 14.1
